Measured values as given in patent publication US5622948A, “Pyrrole pyridazine and pyridazinone anti-inflammatory agents” (Syntex (U.S.A.) Inc., priority 1994, dated 1997).

Key:
COX II = target: T1, COX II (Homo sapiens, UniProt P35354); experiment: radiometric assay, COX II inhibition (human recombinant, baculovirus expressed, partially purified); format: biochemical; parameters: A 1.8 Kb DNA fragment containing the coding region of human COX II was generated by PCR; made in house; host or cells: Sf9 insect cells, baculovirus; settings: radiometric assay, human recombinant baculovirus expressed enzyme; read-out: COX II IC50 (Table 2)
T1 sequence (P35354 18-604): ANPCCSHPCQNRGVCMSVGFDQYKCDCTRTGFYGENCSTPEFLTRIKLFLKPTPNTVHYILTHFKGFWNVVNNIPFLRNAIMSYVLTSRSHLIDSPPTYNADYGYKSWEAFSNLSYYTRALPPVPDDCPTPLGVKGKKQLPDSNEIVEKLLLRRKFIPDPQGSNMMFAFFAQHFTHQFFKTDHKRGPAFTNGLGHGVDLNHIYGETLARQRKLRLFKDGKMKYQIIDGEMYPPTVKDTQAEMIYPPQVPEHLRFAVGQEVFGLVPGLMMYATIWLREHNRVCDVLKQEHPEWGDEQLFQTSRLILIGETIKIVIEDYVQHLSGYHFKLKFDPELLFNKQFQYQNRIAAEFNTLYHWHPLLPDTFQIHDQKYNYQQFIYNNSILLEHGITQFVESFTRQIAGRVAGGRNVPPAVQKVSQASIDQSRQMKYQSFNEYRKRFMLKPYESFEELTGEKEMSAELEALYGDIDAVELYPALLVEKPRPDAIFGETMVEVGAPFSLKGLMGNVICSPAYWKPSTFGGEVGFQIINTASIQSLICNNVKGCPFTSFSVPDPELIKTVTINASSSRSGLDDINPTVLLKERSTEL
Method: (§1) Human prostaglandin G/H synthase I and II ("COX I" and "COX II") were expressed in the baculovirus expression system and purified to high levels.
(§2) As described above, human recombinant COX I and COX II were cloned and expressed in a baculovirus system. Partially purified COX I and COX II enzymes were used for screening compounds for their ability to inhibit COX I and COX II activity, as described below.
(§3) Compound (16), in 2 μl DMSO, and control samples (carrier vehicles only) were mixed with COX I or COX II samples (e.g. fractions from the chromatography columns) in polypropylene tubes and preincubated with 2 mM phenol for 5 minutes and then with 1 μM hematin for an additional 5 minutes. The 150 μl reaction mixture consisted of 50 mM Tris --HCl, pH 7.9, 2 mM EDTA, 10% glycerol, 200 μM phenol, 1 μM hematin, 1-25 μl sample and 20 μM 1-[^14 C] arachidonate (80.000-100.000 cpm/tube). After 45 seconds at room temperature, the reaction was terminated by adding 200 μl of 2N HCl and 750 μl water. An aliquot (950 μl) of the reaction mixture was loaded onto a 1 ml C~ Sep-Pak (J. T. Baker, Phillipsburg, N.J.) which had been previously washed with 2-3 ml methanol and equilibrated with 5-6 ml distilled water. Oxygenated products were quantitatively eluted with 3 ml of acetonitrile, H2 O and acetic acid (50:50:0.1, v/v) and the radioactivity in the eluate determined in a scintillation counter.
(§4) Human recombinant 10 min incubation with Compound (16)
(§5) baculovirus 45 sec incubation with 20 μM AA
(§6) partially purified Separation of radioactive products

COX I = COX I (Homo sapiens, UniProt P23219); experiment: radiometric assay, COX I inhibition (human recombinant, baculovirus expressed, partially purified); format: biochemical; parameters: A 2 Kb fragment containing the coding region of COX I; made in house; host or cells: Sf9 insect cells, baculovirus (cDNA from Oxford Biomedical Research); settings: radiometric assay, human recombinant baculovirus expressed enzyme; read-out: COX I IC50 (Table 2)
Sequence of COX I (P23219 24-599): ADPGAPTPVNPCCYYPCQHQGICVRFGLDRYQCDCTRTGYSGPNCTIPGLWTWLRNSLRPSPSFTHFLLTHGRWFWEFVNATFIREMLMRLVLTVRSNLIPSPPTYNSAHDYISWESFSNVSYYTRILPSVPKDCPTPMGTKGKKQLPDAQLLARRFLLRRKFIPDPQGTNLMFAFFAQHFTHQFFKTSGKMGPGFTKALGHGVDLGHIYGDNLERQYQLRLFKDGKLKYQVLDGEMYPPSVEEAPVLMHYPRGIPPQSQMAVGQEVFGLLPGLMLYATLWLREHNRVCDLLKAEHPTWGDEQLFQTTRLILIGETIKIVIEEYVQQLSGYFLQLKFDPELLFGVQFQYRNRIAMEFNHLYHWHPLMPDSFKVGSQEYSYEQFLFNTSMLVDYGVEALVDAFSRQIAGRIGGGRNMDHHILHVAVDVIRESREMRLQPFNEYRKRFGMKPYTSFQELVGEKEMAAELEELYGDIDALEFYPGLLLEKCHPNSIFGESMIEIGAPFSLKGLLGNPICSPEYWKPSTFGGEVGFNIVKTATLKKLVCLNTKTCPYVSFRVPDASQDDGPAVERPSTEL
Method: as §1, §2, §3, §4, §5, §6

Structure (SMILES) | IC50 (COX II) | IC50 (COX I)
COc1ccc(C(=O)c2c(Cl)cc(Cc3ccc(=O)[nH]n3)n2C)cc1 [Compound 82, 6-[4-chloro-5-(4-methoxy-benzoyl)-1-methyl-1H-pyrrol-2-ylmethyl]-2H-pyridazin-3-one] | 0.81 µM | 20.6 µM
Cc1cc(Cc2ccc(=O)[nH]n2)n(C)c1C(=O)c1cccs1 [Compound 144, 6-[1,4-dimethyl-5-(thienyl-2-carbonyl)-1H-pyrrol-2-ylmethyl]-2H-pyridazin-3-one] | 0.59 µM | 1 µM
COc1ccc(C(=O)c2ccc(Cc3ccc(=O)[nH]n3)n2C)cc1 [Compound 53, 6-[5-(4-methoxy-benzoyl)-1-methyl-1H-pyrrol-2-ylmethyl]-2H-pyridazin-3-one] | 1 µM | 420 µM
Cn1c(Cc2ccc(=O)[nH]n2)ccc1C(=O)c1ccc(Br)cc1 [Compound 57, 6-[5-(4-bromo-benzoyl)-1-methyl-1H-pyrrol-2-ylmethyl]-2H-pyridazin-3-one] | 4.6 µM | 700 µM
CC(=O)n1nc(Cc2cc(C)c(C(=O)c3ccc(Cl)cc3)n2C)ccc1=O [Compound 114, 2-acetyl-6-[5-(4-chloro-benzoyl)-1,4,-dimethyl-1H-pyrrol-2-ylmethyl]-2H-pyridazin-3-one] | 0.66 µM | 82 µM
Cc1cc(Cc2ccc(=O)n(CCCO)n2)n(C)c1C(=O)c1ccc(Cl)cc1 [Compound 140, 6-[5-(4-chloro-benzoyl)-1,4,-dimethyl-1H-pyrrol-2-ylmethyl]-2-(3-hydroxy-1-propyl)-2H-pyridazin-3-one] | 0.53 µM | 48 µM
Cc1cc(Cc2ccc(=O)n(CCCl)n2)n(C)c1C(=O)c1ccc(Cl)cc1 [Compound 131, 6-[5-(4-chloro-benzoyl)-1,4-dimethyl-1H-pyrrol-2-ylmethyl]-2-(2-chloroethyl)-2H-pyridazin-3-one] | 0.12 µM | 5.3 µM
CCc1ccc(C(=O)c2ccc(Cc3ccc(=O)[nH]n3)n2C)cc1 [Compound 46, 6-[5-(4-ethyl-benzoyl)-1-methyl-1H-pyrrol-2-ylmethyl]-2H-pyridazin-3-one] | 7.2 µM | > 100 µM
COC(=O)Cn1nc(Cc2cc(C)c(C(=O)c3ccc(Cl)cc3)n2C)ccc1=O [Compound 116, {3-[5-(4-chloro-benzoyl)-1,4,-dimethyl-1H-pyrrol-2-ylmethyl]-6-oxo-6H-pyridazin-1-yl}-acetic acid methyl ester] | 0.18 µM | 0.92 µM
Cc1cc(Cc2ccc(=O)n(CO)n2)n(C)c1C(=O)c1ccc(Cl)cc1 [Compound 153, 6-[5-(4-chloro-benzoyl)-1,4,-dimethyl-1H-pyrrol-2-ylmethyl]-2-(hydroxy-methyl)-2H-pyridazin-3-one] | 0.54 µM | > 100 µM
CSc1cc(Cc2ccc(=O)[nH]n2)n(C)c1C(=O)c1ccc(C)cc1 [Compound 107, 6-(1-methyl-5-(4-methyl-benzoyl)-4-methylthio-1H-pyrrol-2-ylmethyl)-2H-pyridazin-3-one] | 2.3 µM | 21 µM
Cc1cc(Cc2ccc(=O)n(Cc3c(Cl)cccc3Cl)n2)n(C)c1C(=O)c1ccc(Cl)cc1 [Compound 152, 6-[5-(4-chloro-benzoyl)-1,4,-dimethyl-1H-pyrrol-2-ylmethyl]-2-(2,6-dichlorobenzyl)-2H-pyridazin-3-one] | 0.14 µM | 10 µM
Cc1cc(Cc2ccc(=O)n(Cc3ccc(F)cc3)n2)n(C)c1C(=O)c1ccc(Cl)cc1 [Compound 129, 6-[5-(4-chloro-benzoyl)-1,4,-dimethyl-1H-pyrrol-2-ylmethyl]-2-(4-fluorobenzyl)-2H-pyridazin-3-one] | 0.067 µM | 3.4 µM
Cc1cc(Cc2ccc(=O)n(CCC#N)n2)n(C)c1C(=O)c1ccc(Cl)cc1 [Compound 145, 6-[5-(4-chloro-benzoyl)-1,4,-dimethyl-1H-pyrrol-2-ylmethyl]-2-(2-cyano-ethyl)-2H-pyridazin-3-one] | 0.91 µM | 85 µM
Cc1cc(Cc2ccc(=O)n(CC(N)=O)n2)n(C)c1C(=O)c1ccc(Cl)cc1 [Compound 120, 2-{3-[5-(4-chloro-benzoyl)-1,4,-dimethyl-1H-pyrrol-2-ylmethyl]-6-oxo-6H-pyridazin-1-yl}-acetamide] | 0.8 µM | 8.9 µM
CSc1ccc(C(=O)c2ccc(Cc3ccc(=O)[nH]n3)n2C)cc1 [Compound 43, 6-[1-methyl-5-(4-methylthio-benzoyl)-1H-pyrrol-2-ylmethyl]-2H-pyridazin-3-one] | 0.3 µM | 23 µM
Cc1cc(Cc2ccc(=O)[nH]n2)n(C)c1C(=O)c1ccc(Br)cc1 [Compound 35, 6-[5-(4-bromo-benzoyl)-1,4-dimethyl-1H-pyrrol-2-ylmethyl]-2H-pyridazin-3-one] | 0.1 µM | 86 µM
Cc1ccc(C(=O)c2c(Cl)cc(Cc3ccc(=O)[nH]n3)n2C)cc1 [Compound 80, 6-[4-chloro-1-methyl-5-(4-methyl-benzoyl)-1H-pyrrol-2-ylmethyl]-2H-pyridazin-3-one] | 0.7 µM | ≥ 1000 µM

More lines, now with the values ahead:

IC50 (COX II) | IC50 (COX I) | Structure (SMILES)
0.72 µM | 82 µM | Cn1c(Cc2ccc(=O)[nH]n2)ccc1C(=O)c1ccc(C2CC2)cc1 [Compound 42, 6-[5-(4-cyclopropyl-benzoyl)-1-methyl-1H-pyrrol-2-ylmethyl]-2H-pyridazin-3-one]
0.4 µM | 38 µM | CCc1ccc(C(=O)c2c(C)cc(Cc3ccc(=O)[nH]n3)n2C)cc1 [Compound 36, 6-[1,4-dimethyl-5-(4-ethyl-benzoyl)-1H-pyrrol-2-ylmethyl]-2H-pyridazin-3-one]
0.5 µM | 40 µM | Cc1ccc(C(=O)c2c(C)cc(Cc3ccc(=O)[nH]n3)n2C)cc1 [Compound 30, 6-[1,4-dimethyl-5-(4-methyl-benzoyl)-1H-pyrrol-2-ylmethyl]-2H-pyridazin-3-one]
< 0.1 µM | 3.8 µM | Cc1cccc(C)c1Cn1nc(Cc2cc(C)c(C(=O)c3ccc(Cl)cc3)n2C)ccc1=O [Compound 151, 6-[5-(4-chloro-benzoyl)-1,4,-dimethyl-1H-pyrrol-2-ylmethyl]-2-(2,6-dimethylbenzyl)-2H-pyridazin-3-one]
0.7 µM | 440 µM | Cc1c(Cl)c(Cc2ccc(=O)[nH]n2)n(C)c1C(=O)c1ccc(Cl)cc1 [Compound 24, 6-[3-chloro-5-(4-chloro-benzoyl)-1,4-dimethyl-1H-pyrrol-2-ylmethyl]-2H-pyridazin-3-one]
0.91 µM | 7.9 µM | COc1ccc(Cn2nc(Cc3cc(C)c(C(=O)c4ccc(Cl)cc4)n3C)ccc2=O)cc1 [Compound 168, 6-[5-(4-chloro-benzoyl)-1,4,-dimethyl-1H-pyrrol-2-ylmethyl]-2-(4-methoxybenzyl)-2H-pyridazin-3-one]
0.68 µM | 3.2 µM | CC[C@@H](C)NC(=O)Cn1nc(Cc2cc(C)c(C(=O)c3ccc(Cl)cc3)n2C)ccc1=O [Compound 158, R--N-sec-butyl-2-{3-[5-(4-chloro-benzoyl)-1,4,-dimethyl-1H-pyrrol-2-ylmethyl]-6-oxo-6H-pyridazin-1-yl}-acetamide]
0.58 µM | > 100 µM | Cc1ccc(C(=O)c2cc(Br)c(Cc3ccc(=O)[nH]n3)n2C)cc1 [Compound 130, 6-[3-bromo-1-methyl-5-(4-methyl-benzoyl)-1H-pyrrol-2-ylmethyl]-2H-pyridazin-3-one]
